Test results taken from patent US20240209028A1, “CNP COMPOUNDS” (priority 2022, published 2024).
In brackets after ≈: the same amount, converted by molar mass. Like-named read-outs stand apart in the source and are kept apart here. Starred links: 1 amine or outer side, 2 acyl side, 3 side chain; linkers in the order of their positions; H or OH if unused. Positions of bridges follow the written chain, without caps; N, C: chain ends. Residues, ends and D or L forms follow the SMILES beside them. *: point of attachment. C18 diacid = O=C(O)CCCCCCCCCCCCCCCCC(=O)*; γGlu = O=C(O)[C@H](CCC(=O)[*:2])N[*:1]; AEEA = NCCOCCOCC(=O)O

Legend:
[1] = molecular target: T1, human natriuretic peptide receptor 2 (hNPR2) (Homo sapiens, UniProt P20594); assay: In vitro hNPR2 activity assay (cGMP GloSensor reporter, HEK293); type: cell-based; conditions: potency relative to CNP22 (0065)
T1 construct: expressed in transfected cells; host or cells: HEK293 (ATCC CRL-1573), clone 35, co-transfected with pGloSensor-42F
T1 sequence (P20594 23-1047): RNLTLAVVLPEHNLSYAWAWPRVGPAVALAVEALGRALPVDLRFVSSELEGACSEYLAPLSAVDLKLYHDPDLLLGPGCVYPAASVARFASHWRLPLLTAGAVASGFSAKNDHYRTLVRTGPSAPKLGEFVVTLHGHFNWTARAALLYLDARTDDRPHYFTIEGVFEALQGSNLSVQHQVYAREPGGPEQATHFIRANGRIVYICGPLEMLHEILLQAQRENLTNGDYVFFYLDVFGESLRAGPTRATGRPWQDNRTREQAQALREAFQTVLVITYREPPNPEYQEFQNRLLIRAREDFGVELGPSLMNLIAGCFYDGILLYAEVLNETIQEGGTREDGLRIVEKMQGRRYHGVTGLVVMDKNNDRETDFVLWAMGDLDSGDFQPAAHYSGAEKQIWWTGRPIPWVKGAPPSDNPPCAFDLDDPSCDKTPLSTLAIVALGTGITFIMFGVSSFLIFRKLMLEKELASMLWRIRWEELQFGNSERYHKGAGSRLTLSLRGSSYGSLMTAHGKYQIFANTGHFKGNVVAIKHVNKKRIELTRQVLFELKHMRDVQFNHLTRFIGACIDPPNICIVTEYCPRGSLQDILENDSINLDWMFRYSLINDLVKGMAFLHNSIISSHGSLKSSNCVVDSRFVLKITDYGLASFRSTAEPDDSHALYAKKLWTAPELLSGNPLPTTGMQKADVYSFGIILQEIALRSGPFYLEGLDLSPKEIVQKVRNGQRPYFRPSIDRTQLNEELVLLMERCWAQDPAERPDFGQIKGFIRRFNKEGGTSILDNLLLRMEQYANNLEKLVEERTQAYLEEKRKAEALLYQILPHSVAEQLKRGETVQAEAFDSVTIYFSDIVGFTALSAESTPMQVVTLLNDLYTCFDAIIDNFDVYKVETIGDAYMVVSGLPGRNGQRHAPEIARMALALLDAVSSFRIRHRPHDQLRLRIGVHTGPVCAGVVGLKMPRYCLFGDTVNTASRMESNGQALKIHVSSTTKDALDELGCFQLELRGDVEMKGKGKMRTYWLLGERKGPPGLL
In short: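 Potency is the EC50 from a four-parameter logistic fit, also expressed relative to the in-plate CNP22 control (×100), with at least two replicates. Compounds (ten concentrations, […], HSA-free diluent with 1% OVA, 0.01% Tween20) were incubated 30 min at 37 °C on HEK293 cells co-expressing hNPR2 and a GloSensor cGMP luciferase. Luminescence detected with Bright-Glo.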

[2] = Solubility of CNP compounds at pH 4.0 and pH 6.5; type: physicochemical
In short: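 Supernatant peptide concentration was quantified by CAD after overnight room-temperature equilibration of incompletely dissolved samples. Nominal loading was ≥4000-5000 nmol/mL. Media were pH 4.0 sodium acetate 5 mM/glycerol 250 mM, or pH 6.5 sodium phosphate 8 mM/glycerol 23 mg/mL reached by stepwise NaOH addition.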

[3] = 8 mM sodium phosphate, 23 mg/mL glycerol, pH 6.5, room temperature, read-out: Solubility at pH 6.5
[4] = 5 mM sodium acetate, 250 mM glycerol, pH 4.0, room temperature, read-out: Solubility at pH 4.0

SMILES: CC[C@H](C)[C@@H]1NC(=O)[C@H](CCCNC(=N)N)NC(=O)[C@H](CC(=O)O)NC(=O)[C@H](CC(C)C)NC(=O)[C@@H]2CCCN2C(=O)[C@H](CC(C)C)NC(=O)CNC(=O)[C@H](Cc2ccccc2)NC(=O)[C@@H](NC(=O)CNC(=O)[C@H](CO)NC(=O)[C@H](CO)NC(=O)[C@H](CC(C)C)NC(=O)CNC(=O)[C@H](CCCCN)NC(=O)[C@H](CCCCN)NC(=O)[C@H](CCC(N)=O)NC(=O)[C@H](C)NC(=O)CNC(=O)[C@H](CCC(=O)O)NC(=O)[C@H](Cc2ccc(O)cc2)NC(=O)[C@H](CO)NC(=O)[C@H](CCCNC(=N)N)NC(=O)[C@H](C)NC(=O)[C@H](CCC(N)=O)NC(=O)[C@@H]2CCCN2C(=O)[C@H](Cc2c[nH]cn2)NC(=O)[C@H](CCC(=O)O)NC(=O)[C@H](CCC(N)=O)NC(=O)COCCOCCNC(=O)COCCOCCNC(=O)CC[C@H](NC(=O)CCCCCCCCCCCCCCCCC(=O)O)C(=O)O)CSSC[C@@H](C(=O)O)NC(=O)CNC(=O)[C@H](CC(C)C)NC(=O)CNC(=O)[C@H](CO)NC(=O)[C@H](CC(C)C)NC(=O)[C@H](CO)NC(=O)CNC1=O [compound 1379] ({C18 diacid-γGlu-AEEA-AEEA}-QEHPQARSYEGAQKKGLSSGCFGLPLDRIGSLSGLGC-OH; disulfide 21-37; C-terminus assumed)
- hNPR2 0% HSA. [EC50% rel CNP] [1]: 33.5%
- solubility [2, 3]: 2670 µM (≈ 12.2 mg/mL)

SMILES: CC[C@H](C)[C@@H]1NC(=O)[C@H](CCCNC(=N)N)NC(=O)[C@H](CC(=O)O)NC(=O)[C@H](CC(C)C)NC(=O)[C@@H]2CCCN2C(=O)[C@H](CC(C)C)NC(=O)CNC(=O)[C@H](Cc2ccccc2)NC(=O)[C@@H](NC(=O)CNC(=O)[C@H](CCC(N)=O)NC(=O)[C@H](CO)NC(=O)[C@H](CO)NC(=O)CNC(=O)[C@H](Cc2c[nH]cn2)NC(=O)[C@H](Cc2c[nH]cn2)NC(=O)[C@H](CCC(N)=O)NC(=O)[C@H](C)NC(=O)CNC(=O)[C@H](Cc2c[nH]cn2)NC(=O)[C@H](Cc2ccc(O)cc2)NC(=O)[C@H](CCCCN)NC(=O)[C@H](Cc2c[nH]cn2)NC(=O)[C@H](C)NC(=O)[C@H](CCC(N)=O)NC(=O)[C@@H]2CCCN2C(=O)[C@H](Cc2c[nH]cn2)NC(=O)[C@H](CCC(=O)O)NC(=O)[C@H](CCC(N)=O)NC(=O)COCCOCCNC(=O)COCCOCCNC(=O)CC[C@H](NC(=O)CCCCCCCCCCCCCCCCC(=O)O)C(=O)O)CSSC[C@@H](C(=O)O)NC(=O)CNC(=O)[C@H](CC(C)C)NC(=O)CNC(=O)[C@H](CO)NC(=O)[C@H](CC(C)C)NC(=O)[C@H](CO)NC(=O)CNC1=O [compound 1381] ({C18 diacid-γGlu-AEEA-AEEA}-QEHPQAHKYHGAQHHGSSQGCFGLPLDRIGSLSGLGC-OH; disulfide 21-37)
- hNPR2 0% HSA. [EC50% rel CNP] [1]: 38.7%
- solubility [2, 4]: 9000 µM (≈ 41.6 mg/mL)

SMILES: CC[C@H](C)[C@@H]1NC(=O)[C@H](CCCNC(=N)N)NC(=O)[C@H](CC(=O)O)NC(=O)[C@H](CC(C)C)NC(=O)[C@@H]2CCCN2C(=O)[C@H](CC(C)C)NC(=O)CNC(=O)[C@H](Cc2ccccc2)NC(=O)[C@@H](NC(=O)CNC(=O)[C@H](CCC(N)=O)NC(=O)[C@H](CO)NC(=O)[C@H](CC(C)C)NC(=O)CNC(=O)[C@H](CCCCN)NC(=O)[C@H](CCCCN)NC(=O)[C@H](CCC(N)=O)NC(=O)[C@H](C)NC(=O)CNC(=O)[C@H](CCCCN)NC(=O)[C@H](Cc2ccc(O)cc2)NC(=O)[C@H](CCCCN)NC(=O)[C@H](Cc2c[nH]cn2)NC(=O)[C@H](C)NC(=O)[C@H](CCC(N)=O)NC(=O)[C@@H]2CCCN2C(=O)[C@H](Cc2c[nH]cn2)NC(=O)[C@H](CCC(=O)O)NC(=O)[C@H](CCC(N)=O)NC(=O)COCCOCCNC(=O)COCCOCCNC(=O)CC[C@H](NC(=O)CC[C@H](NC(=O)CC[C@H](NC(=O)CCCCCCCCCCCCCCCCC(=O)O)C(=O)O)C(=O)O)C(=O)O)CSSC[C@@H](C(=O)O)NC(=O)CNC(=O)[C@H](CC(C)C)NC(=O)CNC(=O)[C@H](CO)NC(=O)[C@H](CC(C)C)NC(=O)[C@H](CO)NC(=O)CNC1=O [compound 1382] ({C18 diacid-γGlu-γGlu-γGlu-AEEA-AEEA}-QEHPQAHKYKGAQKKGLSQGCFGLPLDRIGSLSGLGC-OH; disulfide 21-37)
- hNPR2 0% HSA. [EC50% rel CNP] [1]: 43.8%
- solubility [2, 3]: 3180 µM (≈ 15.5 mg/mL)

SMILES: CC[C@H](C)[C@@H]1NC(=O)[C@H](CCCNC(=N)N)NC(=O)[C@H](CC(=O)O)NC(=O)[C@H](CC(C)C)NC(=O)[C@@H]2CCCN2C(=O)[C@H](CC(C)C)NC(=O)CNC(=O)[C@H](Cc2ccccc2)NC(=O)[C@@H](NC(=O)CNC(=O)[C@H](CO)NC(=O)[C@H](CO)NC(=O)[C@H](CC(C)C)NC(=O)CNC(=O)[C@H](CCCCN)NC(=O)[C@H](CCCCN)NC(=O)[C@H](CCC(N)=O)NC(=O)[C@H](C)NC(=O)CNC(=O)[C@H](CCCCN)NC(=O)[C@H](Cc2ccc(O)cc2)NC(=O)[C@H](CCCCN)NC(=O)[C@H](CCCNC(=N)N)NC(=O)[C@H](C)NC(=O)CC[C@H](NC(=O)CC[C@H](NC(=O)CC[C@H](NC(=O)CC[C@H](NC(=O)CCCCCCCCCCCCCCCCC(=O)O)C(=O)O)C(=O)O)C(=O)O)C(=O)O)CSSC[C@@H](C(=O)O)NC(=O)CNC(=O)[C@H](CC(C)C)NC(=O)CNC(=O)[C@H](CO)NC(=O)[C@H](CC(C)C)NC(=O)[C@H](CO)NC(=O)CNC1=O [compound 1386] ({C18 diacid-γGlu-γGlu-γGlu-γGlu}-ARKYKGAQKKGLSSGCFGLPLDRIGSLSGLGC-OH; disulfide 16-32)
- hNPR2 0% HSA. [EC50% rel CNP] [1]: 36.9%
- solubility [2, 3]: 490 µM (≈ 2 mg/mL)

SMILES: CC[C@H](C)[C@@H]1NC(=O)[C@H](CCCNC(=N)N)NC(=O)[C@H](CC(=O)O)NC(=O)[C@H](CC(C)C)NC(=O)[C@@H]2CCCN2C(=O)[C@H](CC(C)C)NC(=O)CNC(=O)[C@H](Cc2ccccc2)NC(=O)[C@@H](NC(=O)CNC(=O)[C@H](CO)NC(=O)[C@H](CO)NC(=O)[C@H](CC(C)C)NC(=O)CNC(=O)[C@H](CCCCN)NC(=O)[C@H](CCCCN)NC(=O)[C@H](CCC(N)=O)NC(=O)[C@H](C)NC(=O)CNC(=O)[C@H](CCCCN)NC(=O)[C@H](Cc2ccc(O)cc2)NC(=O)[C@H](CCCCN)NC(=O)[C@H](CCCNC(=N)N)NC(=O)[C@H](C)NC(=O)[C@H](CCC(N)=O)NC(=O)[C@@H]2CCCN2C(=O)[C@H](Cc2c[nH]cn2)NC(=O)[C@H](CCC(=O)O)NC(=O)[C@H](CCC(N)=O)NC(=O)CC[C@H](NC(=O)CC[C@H](NC(=O)CC[C@H](NC(=O)CC[C@H](NC(=O)CCCCCCCCCCCCCCCCC(=O)O)C(=O)O)C(=O)O)C(=O)O)C(=O)O)CSSC[C@@H](C(=O)O)NC(=O)CNC(=O)[C@H](CC(C)C)NC(=O)CNC(=O)[C@H](CO)NC(=O)[C@H](CC(C)C)NC(=O)[C@H](CO)NC(=O)CNC1=O [compound 1389] ({C18 diacid-γGlu-γGlu-γGlu-γGlu}-QEHPQARKYKGAQKKGLSSGCFGLPLDRIGSLSGLGC-OH; disulfide 21-37)
- hNPR2 0% HSA. [EC50% rel CNP] [1]: 52.3%
- solubility [2, 4]: 8900 µM (≈ 41.8 mg/mL)
- solubility [2, 3]: 426 µM (≈ 2 mg/mL)
